Values quoted from earlier work as cited in patent US20160213656A1, “H[…] FORM” (Sovereign Pharmaceuticals, LLC, priority 2004, published 2016).

For `CN1[C@@H]2CC[C@H]1C[C@@H](OC(=O)[C@H](CO)c1ccccc1)C2` [hyoscyamine], the “time for which therapeutic levels are maintained” value (once absorbed, blood) is given as “approximately 3.5 hours” and the “time within which the majority of hyoscyamine is excreted in the urine unchanged” value (urine, unchanged drug) is given as ≤ 12 h.
